Test system: patients suffering from migraine (moderate or severe migraine attacks)
Test: Double-blind, randomized, cross-over, placebo-controlled study of rizatriptan and trimebutine for treating migraine
Format: in vivo, human
Method: Thirty-two patients (24 women and 8 men, aged between 21 and 61, average=39.7) suffering from migraine according to the criteria of the International Headache Association were randomized to treat 2 consecutive moderate or severe attacks with a tablet of 10 mg of rizatriptan and a capsule of 200 mg of trimebutine and 2 attacks with the same amount of triptan and placebo, and vice-versa. The severity of the attacks, as well as the presence of nauseas and photophobia at the moment of ingesting the drug after 1, 2 and 4 hours were collected.

## CN(C)CCc1c[nH]c2ccc(Cn3cncn3)cc12 [rizatriptan]
10 mg rizatriptan tablet with 200 mg trimebutine capsule or placebo, 1 hour, of the 38 attacks, p<0.001
  without pain after 1 hour (share of the 38 attacks without pain): 21.1%
10 mg rizatriptan tablet with 200 mg trimebutine capsule or placebo, 2 hours, of the 67 attacks, p<0.0001
  without pain after 2 hours (share of the 67 attacks): 29.9%
64 attacks treated with each drug regimen
  adverse events present (number of attacks treated): 18 attacks
1 hour, p<0.001
  free from nausea after 1 hour: 23.7%
  free from photophobia after 1 hour: 26.7%
